Assay results taken from ChEMBL document CHEMBL5543105, “Total synthesis and structural modification of the dibenzylbutane lignan LCA as a potent anti-inflammatory agent against LPS-induced acute lung injury” (Eur J Med Chem, 2024).
Calls of active or inactive are those of the source. The calls are words filed in the database; no cut-off is given here.

Experiments:
[1] = tested on: RAW264.7; assay: Cytotoxicity against mouse RAW264.7 cells upto 20 uM incubated for 24 hrs by CCK-8 assay; assay type: toxicity, cell-based; conditions: raw264.7, 24 h
[2] = tested on: RAW264.7; assay: Anti-inflammatory activity against mouse RAW264.7 cells assessed as inhibition of LPS-induced NO production at 20 uM incubated for 24 hrs; assay type: functional, cell-based
[3] = tested on: Mus musculus; assay: Anti-inflammatory activity against LPS-induced acute […] injury C57BL/6 mouse model assessed as improvement in lung edema at 20 mg/kg, ip administered for 1 hr and measured after 6 hrs by H and E staining based analysis; assay type: functional, organism-based; conditions: time 7.0 hrs
[4] = tested on: Mus musculus; assay: Anti-inflammatory activity against LPS-induced acute […] injury C57BL/6 mouse model assessed as reduction in bleeding points in lung at 20 mg/kg, ip administered for 1 hr and measured after 6 hrs by H and E staining based analysis; assay type: functional, organism-based; conditions: time 7.0 hrs
[5] = tested on: Mus musculus; assay: Anti-inflammatory activity against LPS-induced acute […] injury C57BL/6 mouse model assessed as reduction in alveolar thickness in lung at 20 mg/kg, ip administered for 1 hr and measured after 6 hrs by H and E staining based analysis; assay type: functional, organism-based; conditions: time 7.0 hrs
[6] = tested on: Mus musculus; assay: Anti-inflammatory activity against LPS-induced acute […] injury C57BL/6 mouse model assessed as reduction in congestion in lung at 20 mg/kg, ip administered for 1 hr and measured after 6 hrs by H and E staining based analysis; assay type: functional, organism-based; conditions: time 7.0 hrs
[7] = tested on: Mus musculus; assay: Anti-inflammatory activity against LPS-induced acute […] injury C57BL/6 mouse model assessed as improvement in destruction of lung structure at 20 mg/kg, ip administered for 1 hr and measured after 6 hrs by H and E staining based analysis; assay type: functional, organism-based; conditions: time 7.0 hrs
[8] = tested on: Mus musculus; assay: Anti-inflammatory activity against LPS-induced acute […] injury C57BL/6 mouse model assessed as reduction in lung edema at 20 mg/kg, ip administered for 1 hr and measured after 6 hrs by H and E staining based analysis; assay type: functional, organism-based; conditions: time 7.0 hrs
[9] = tested on: Mus musculus; assay: Anti-inflammatory activity against LPS-induced acute […] injury C57BL/6 mouse model assessed as reduction in wet weight to dry weight ratio in lung at 20 mg/kg, ip administered for 1 hr and measured after 6 hrs; assay type: functional, organism-based; conditions: time 7.0 hrs
[10] = tested on: Mus musculus; assay: Anti-inflammatory activity against LPS-induced acute […] injury C57BL/6 mouse model assessed as reduction in inflammatory cell infiltration at 20 mg/kg, ip administered for 1 hr and measured after 6 hrs by H and E staining based analysis; assay type: functional, organism-based; conditions: time 7.0 hrs
[11] = tested on: Mus musculus; assay: Anti-inflammatory activity against LPS-induced acute […] injury C57BL/6 mouse model assessed as improvement in alveolar wall thickness at 20 mg/kg, ip administered for 1 hr and measured after 6 hrs by H and E staining based analysis; assay type: functional, organism-based; conditions: time 7.0 hrs
[12] = tested on: Mus musculus; assay: Anti-inflammatory activity against LPS-induced acute […] injury C57BL/6 mouse model assessed as improvement in alveolar structure at 20 mg/kg, ip administered for 1 hr and measured after 6 hrs by H and E staining based analysis; assay type: functional, organism-based; conditions: time 7.0 hrs
[13] = tested on: Mus musculus; assay: Anti-inflammatory activity against LPS-induced acute […] injury C57BL/6 mouse model assessed as improvement in pulmonary hemorrhage at 20 mg/kg, ip administered for 1 hr and measured after 6 hrs by H and E staining based analysis; assay type: functional, organism-based; conditions: time 7.0 hrs

For `COc1cc(C[C@H](C(=O)N2CCN(c3ccccc3Cl)CC2)[C@@H](Cc2cc(OC)c(O)c(OC)c2)C(=O)N2CCN(c3ccccc3Cl)CC2)cc(OC)c1O`, the Activity [1] was “Non-Toxic” and the Activity [2] was “Active”.

For `COc1cc(C[C@H](C(=O)N2CCN(c3cccc(C)c3)CC2)[C@@H](Cc2cc(OC)c(O)c(OC)c2)C(=O)N2CCN(c3cccc(C)c3)CC2)cc(OC)c1O`, the Activity [1] was “Non-Toxic”.

With `COc1cc(C[C@H](C(=O)N2CCN(c3ccc(C(F)(F)F)cc3)CC2)[C@@H](Cc2cc(OC)c(O)c(OC)c2)C(=O)N2CCN(c3ccc(C(F)(F)F)cc3)CC2)cc(OC)c1O` the Activity [1] was “Non-Toxic”.

For `CNC(=O)[C@@H](Cc1cc(OC)c(O)c(OC)c1)[C@@H](Cc1cc(OC)c(O)c(OC)c1)C(=O)NC`, the Activity [1] was “Non-Toxic”.

`COc1ccc(N2CCN(C(=O)[C@@H](Cc3cc(OC)c(O)c(OC)c3)[C@@H](Cc3cc(OC)c(O)c(OC)c3)C(=O)N3CCN(c4ccc(OC)cc4)CC3)CC2)cc1` was tested, and the Activity [1] was “Non-Toxic”.

For `COc1cccc(N2CCN(C(=O)[C@@H](Cc3cc(OC)c(O)c(OC)c3)[C@@H](Cc3cc(OC)c(O)c(OC)c3)C(=O)N3CCN(c4cccc(OC)c4)CC3)CC2)c1`, the Activity [1] was “Non-Toxic”.

With `COc1cc(C[C@H](C(=O)N2CCN(c3ccccc3C(F)(F)F)CC2)[C@@H](Cc2cc(OC)c(O)c(OC)c2)C(=O)N2CCN(c3ccccc3C(F)(F)F)CC2)cc(OC)c1O` the Activity [1] was “Non-Toxic” and the Activity [2] was “Active”.

In the case of `COc1cc(C[C@H](C(=O)NC2CCCCC2)[C@@H](Cc2cc(OC)c(O)c(OC)c2)C(=O)NC2CCCCC2)cc(OC)c1O`, the Activity [1] is reported as “Non-Toxic”.

With `COc1cc(/C=C/C(=O)OC[C@H](Cc2cc(OC)c(O)c(OC)c2)[C@@H](COC(=O)/C=C/c2ccc(O)c(OC)c2)Cc2cc(OC)c(O)c(OC)c2)ccc1O` the Activity [3] was “Active”, the Activity [4] was “Active” and the Activity [5] was “Active”. The Activity [6] was “Active”, the Activity [7] was “Active” and the Activity [8] was “Active”. The Activity [9] was “Active”, the Activity [10] was “Active” and the Activity [11] was “Active”. The Activity [12] was “Active” and the Activity [13] was “Active”.

For `COc1cc(C[C@H](C(=O)N2CCN(c3ccc(C)cc3)CC2)[C@@H](Cc2cc(OC)c(O)c(OC)c2)C(=O)N2CCN(c3ccc(C)cc3)CC2)cc(OC)c1O`, the Activity [1] was “Non-Toxic”.

With `COc1cc(C[C@H](C(=O)N2CCN(c3ccc(F)cc3F)CC2)[C@@H](Cc2cc(OC)c(O)c(OC)c2)C(=O)N2CCN(c3ccc(F)cc3F)CC2)cc(OC)c1O` the Activity [1] was “Non-Toxic” and the Activity [2] was “Active”.

`COc1ccccc1N1CCN(C(=O)[C@@H](Cc2cc(OC)c(O)c(OC)c2)[C@@H](Cc2cc(OC)c(O)c(OC)c2)C(=O)N2CCN(c3ccccc3OC)CC2)CC1` was tested, and the Activity [1] was “Non-Toxic”.

`COc1cc(C[C@H](C(=O)N2CCN(c3cccc(F)c3)CC2)[C@@H](Cc2cc(OC)c(O)c(OC)c2)C(=O)N2CCN(c3cccc(F)c3)CC2)cc(OC)c1O` was tested, and the Activity [1] was “Non-Toxic”.

With `CCCCCCNC(=O)[C@@H](Cc1cc(OC)c(O)c(OC)c1)[C@@H](Cc1cc(OC)c(O)c(OC)c1)C(=O)NCCCCCC` the Activity [1] was “Non-Toxic”.

With `COc1cc(C[C@H](C(=O)N2CCOCC2)[C@@H](Cc2cc(OC)c(O)c(OC)c2)C(=O)N2CCOCC2)cc(OC)c1O` the Activity [1] was “Non-Toxic” and the Activity [2] was “Active”.

In the case of `COc1cc(C[C@H](C(=O)NC2CCC(OC)CC2)[C@@H](Cc2cc(OC)c(O)c(OC)c2)C(=O)NC2CCC(OC)CC2)cc(OC)c1O` (some centres not stated), the Activity [1] is reported as “Non-Toxic”.

`COc1cc(C[C@H](C(=O)NC2CC2)[C@@H](Cc2cc(OC)c(O)c(OC)c2)C(=O)NC2CC2)cc(OC)c1O` was tested, and the Activity [1] was “Non-Toxic”.

For `COc1cc(C[C@H](C(=O)N2CCN(C)CC2)[C@@H](Cc2cc(OC)c(O)c(OC)c2)C(=O)N2CCN(C)CC2)cc(OC)c1O`, the Activity [1] was “Non-Toxic” and the Activity [2] was “Active”.

With `COc1cc(C[C@H](C(=O)N2CCN(c3ccc(F)cc3)CC2)[C@@H](Cc2cc(OC)c(O)c(OC)c2)C(=O)N2CCN(c3ccc(F)cc3)CC2)cc(OC)c1O` the Activity [1] was “Non-Toxic”.

With `COc1cc(C[C@H](C(=O)N2CCN(c3cccc(Cl)c3)CC2)[C@@H](Cc2cc(OC)c(O)c(OC)c2)C(=O)N2CCN(c3cccc(Cl)c3)CC2)cc(OC)c1O` the Activity [1] was “Non-Toxic” and the Activity [2] was “Active”.

`COc1cc(C[C@H](C(=O)NCC2CCC2)[C@@H](Cc2cc(OC)c(O)c(OC)c2)C(=O)NCC2CCC2)cc(OC)c1O` was tested, and the Activity [1] was “Non-Toxic”.

`COc1cc(C[C@H](C(=O)N2CCN(c3cccc(Cl)c3Cl)CC2)[C@@H](Cc2cc(OC)c(O)c(OC)c2)C(=O)N2CCN(c3cccc(Cl)c3Cl)CC2)cc(OC)c1O` was tested, and the Activity [1] was “Non-Toxic”.

`COc1cc(C[C@H](C(=O)N2CCN(c3ccccc3C)CC2)[C@@H](Cc2cc(OC)c(O)c(OC)c2)C(=O)N2CCN(c3ccccc3C)CC2)cc(OC)c1O` was tested, and the Activity [1] was “Non-Toxic” and the Activity [2] was “Active”.

For `COc1cc(C[C@H](C(=O)NC2CC(F)(F)C2)[C@@H](Cc2cc(OC)c(O)c(OC)c2)C(=O)NC2CC(F)(F)C2)cc(OC)c1O`, the Activity [1] was “Non-Toxic”.

In the case of `COc1cc(C[C@H](C(=O)N2CCN(c3ccc(Cl)cc3)CC2)[C@@H](Cc2cc(OC)c(O)c(OC)c2)C(=O)N2CCN(c3ccc(Cl)cc3)CC2)cc(OC)c1O`, the Activity [1] is reported as “Non-Toxic” and the Activity [2] is reported as “Active”.

For `COc1cc(C[C@H](C(=O)N2CCN(c3ccccc3Br)CC2)[C@@H](Cc2cc(OC)c(O)c(OC)c2)C(=O)N2CCN(c3ccccc3Br)CC2)cc(OC)c1O`, the Activity [1] was “Non-Toxic”.

For `COc1cc(C[C@H](C(=O)N2CCCCC2)[C@@H](Cc2cc(OC)c(O)c(OC)c2)C(=O)N2CCCCC2)cc(OC)c1O`, the Activity [1] was “Non-Toxic”.

For `COc1cc(C[C@H](C(=O)NCC2CCCCC2)[C@@H](Cc2cc(OC)c(O)c(OC)c2)C(=O)NCC2CCCCC2)cc(OC)c1O`, the Activity [1] was “Non-Toxic”.

In the case of `COc1cc(C[C@H](C(=O)N2CCN(c3ccccc3F)CC2)[C@@H](Cc2cc(OC)c(O)c(OC)c2)C(=O)N2CCN(c3ccccc3F)CC2)cc(OC)c1O`, the Activity [1] is reported as “Non-Toxic”.

With `COc1cc(C[C@H](C(=O)NC2CC(OC)C2)[C@@H](Cc2cc(OC)c(O)c(OC)c2)C(=O)NC2CC(OC)C2)cc(OC)c1O` (some centres not stated) the Activity [1] was “Non-Toxic”.

In the case of `COc1cc(C[C@H](C(=O)NC2CCC2)[C@@H](Cc2cc(OC)c(O)c(OC)c2)C(=O)NC2CCC2)cc(OC)c1O`, the Activity [1] is reported as “Non-Toxic”.

For `COc1cc(C[C@H](C(=O)N2CCN(c3ccccc3)CC2)[C@@H](Cc2cc(OC)c(O)c(OC)c2)C(=O)N2CCN(c3ccccc3)CC2)cc(OC)c1O`, the Activity [1] was “Non-Toxic”.

For `COc1cc(C[C@H](C(=O)N2CCN(c3cccc(C(F)(F)F)c3)CC2)[C@@H](Cc2cc(OC)c(O)c(OC)c2)C(=O)N2CCN(c3cccc(C(F)(F)F)c3)CC2)cc(OC)c1O`, the Activity [1] was “Non-Toxic” and the Activity [2] was “Active”.
